Assay results published in patent US8182854B2, “Coffee drink composition” (Kao Corporation, priority 2004, dated 2012).
Entries after “also recorded” stand apart in the source; their conditions may differ.

Tested on: hydrogen peroxide in urine
Assay: Amount of hydrogen peroxide in rat urine after forced p.o. administration (FOX assay)
Type: in vivo, SD rats
Experimental: (c) The coffees obtained above in (a) and (b) were each forcibly administered p.o. (10 mL/kg) to six-week-old male SD rats (n=4). Three hours after the administration, urine was collected and the amount of hydrogen peroxide in their urine was measured. The amount of hydrogen peroxide in urine was measured by FOX (ferrous ion oxidation-xylenol orange) assay. (b) To 7-week-old male SD rats (n=4), 2.4 g/kg of instant coffee (Nescafe decaffeinated) (1.6 mg/kg in terms of hydroxyhydroquinone) and 1.6 mg/kg of hydroxyhydroquinone were forcibly administered p.o, respectively. Prior to administration and three hours and six hours after administration, urine was collected from them and the amount of hydrogen peroxide in urine was measured as in Example 2. To seven-week-old male SD rats (n=3), hydroxyhydroquinone (0.1, 0.3, 1 and 3 mg/kg, respectively) was forcibly administered p.o. Prior to administration and three and six hours after administration, urine was collected from them and the amount of hydrogen peroxide in the urine was determined as in Example 2. (c) The coffees obtained above in (a) and (b) (each, 10 mL/kg) were forcibly administered p.o. to seven-week-old male SD rats (n=8). Prior to administration and three and six hours after the administration, urine was collected from them and the amount of hydrogen peroxide in the urine was measured as in Example 2.

**Q.** Which results are given for `Oc1ccc(O)c(O)c1` [hydroxyhydroquinone]?
**A.** amount of hydrogen peroxide in urine (Example 3, FIG. 3, 7-week-old male SD rats, p.o., 2.4 g/kg instant coffee or 1.6 mg/kg hydroxyhydroquinone, three hours after administration): significant increase; amount of hydrogen peroxide in the body (urine) (Example 4, FIG. 4, seven-week-old male SD rats, hydroxyhydroquinone 0.1, 0.3, 1 and 3 mg/kg p.o., urine three and six hours after administration): increases the generation amount of hydrogen peroxide in the body; also recorded: increases dose-dependently; dose from which the amount of hydrogen peroxide in the body increases (Example 4, FIG. 4, seven-week-old male SD rats, p.o.): ≥ 0.3 mg/kg
